From the C3SDB collision cross section collection come the findings set out here.

The conditions of this data set: instrument: TW, calibrated with polyalanine and drug standards.

SMILES strings stand for the structures. Structures can show the parent of a compound that is named as a salt.

`COc1cc(OC)c(C(C)=O)c(O)c1C` [METHYLXANTHOXYLIN]: the “collision cross section (N2)” value ([M+H]+) amounted to 140.2 Å².

As to `Cc1cc2c(cc1S(N)(=O)=O)S(=O)(=O)CCC2` [METICRANE], the “collision cross section (N2)” value ([M+H]+) worked out at 159.4 Å².

Turning to `Cc1ccccc1N1C(=O)c2cc(S(N)(=O)=O)c(Cl)cc2NC1C` (stereo not given) [METOLAZONE], for the setting “[M+H]+”, the “collision cross section (N2)” value came out at 181.2 Å².

`Cc1ncc([N+](=O)[O-])n1CCO` [METRONIDAZOLE]: the “collision cross section (N2)” value ([M+H]+) is 130.4 Å².

Turning to `COC(=O)C[C@H]1C(C)(C)C(=O)[C@@H]2CC3=C4CC(=O)O[C@@H](c5ccoc5)[C@]4(C)CC[C@@H]3[C@@]1(C)C2=O` [MEXICANOLIDE], the “collision cross section (N2)” value ([M+H]+) is 203.9 Å².

Consider `COc1c(C)c2c(c(O)c1C/C=C(\C)CCC(=O)OCCN1CCOCC1)C(=O)OC2` [MYCOPHENOLATE MOFETIL], for which the “collision cross section (N2)” value ([M+H]+) turned out to be 197.3 Å².

On to `COc1c(C)c2c(c(O)c1C/C=C(\C)CCC(=O)O)C(=O)OC2` [MYCOPHENOLIC ACID], for which the “collision cross section (N2)” value ([M+H]+) is 165.4 Å².

On to `CC(=O)N[C@H]1C(O)O[C@H](CO)[C@@H](O)[C@@H]1O[C@H](C)C(=O)O` (stereo not given in full) [N-ACETYLMURAMIC ACID], for which the “collision cross section (N2)” value ([M+Na]+) was determined as 164.8 Å².

In the case of `CC(=O)N[C@H]1[C@H]([C@H](O)[C@H](O)CO)O[C@](O)(C(=O)O)C[C@@H]1O` [N-ACETYLNEURAMIC ACID], where the note is “[M+Na]+”, the “collision cross section (N2)” value came to 166.6 Å².

In the case of `CNc1ccccc1C(=O)O` [N-METHYLANTHRANILIC ACID], the “collision cross section (N2)” value ([M+H]+) was 125.9 Å².

On to `CC(C)(C)NCC(O)COc1cccc2c1C[C@H](O)[C@H](O)C2` (stereo not given in full) [NADOLOL], for which, for the setting “[M+H]+”, the “collision cross section (N2)” value came out at 171.8 Å².

As for `CCn1cc(C(=O)O)c(=O)c2ccc(C)nc21` [NALIDIXIC ACID], the “collision cross section (N2)” value ([M+H]+) is given as 145.3 Å².

Consider `NC(=O)c1cccnc1` [NIACINAMIDE], for which the “collision cross section (N2)” value ([M+H]+) stood at 121.7 Å².

Turning to `O=C(N/N=C/c1ccc([N+](=O)[O-])o1)c1ccc(O)cc1` [NIFUROXAZIDE], under “[M+H]+”, the “collision cross section (N2)” value was found to be 154.4 Å².

Regarding `Cc1ncc(CNC(=O)N(CCCl)N=O)c(N)n1` [NIMUSTINE], the “collision cross section (N2)” value ([M+H]+) was 158.9 Å².

With `CCOC(=O)C1=C(C)NC(C)=C(C(=O)OC)C1c1cccc([N+](=O)[O-])c1` (stereo not given) [NITRENDIPINE], the “collision cross section (N2)” value ([M+H]+) is 181.9 Å².

As for `NC(=O)N/N=C/c1ccc([N+](=O)[O-])o1` [NITROFURAZONE], the “collision cross section (N2)” value ([M+H]+) stood at 138.6 Å².

For `CCCCCCCCCc1ccc(OCCOCCOCCOCCOCCOCCOCCOCCOCCO)cc1` [NONOXYNOL-9], the “collision cross section (N2)” value ([M+H]+) came out at 245.8 Å².

For `C#C[C@]1(OC(C)=O)CC[C@H]2[C@@H]3CCC4=CC(=O)CC[C@@H]4[C@H]3CC[C@@]21C` [NORETHINDRONE ACETATE], the “collision cross section (N2)” value ([M+H]+) is 186.3 Å².

For the compound `C#C[C@]1(O)CC[C@H]2[C@@H]3CCC4=CC(=O)CC[C@@H]4[C@H]3CC[C@@]21C` [NORETHINDRONE], the “collision cross section (N2)” value ([M+H]+) was 174.4 Å².

Consider `CC1COc2c(N3CCN(C)CC3)c(F)cc3c(=O)c(C(=O)O)cn1c23` (stereo not given) [OFLOXACIN], for which, where the note is “[M+H]+”, the “collision cross section (N2)” value was determined as 188.5 Å².

Turning to `C[C@@H]1CN(c2c(F)c(F)c3c(=O)c(C(=O)O)cn(C4CC4)c3c2F)C[C@H](C)N1` [ORBIFLOXACIN], under “[M+H]+”, the “collision cross section (N2)” value was found to be 196.7 Å².

As for `CCCCCCCCCCC[C@@H](C[C@@H]1OC(=O)[C@H]1CCCCCC)OC(=O)[C@H](CC(C)C)NC=O` [ORLISTAT], the “collision cross section (N2)” value ([M+H]+) worked out at 241.2 Å².

For `Cc1ncc([N+](=O)[O-])n1CC(O)CCl` (stereo not given) [ORNIDAZOLE], the “collision cross section (N2)” value ([M+H]+) is recorded as 141.7 Å².

Consider `Cc1cc(O)cc(O)c1C(=O)O` [ORSELLINIC ACID], for which, under “[M+H]+”, the “collision cross section (N2)” value stood at 129.1 Å².

Regarding `C[C@@H]1O[C@@H](O[C@H]2C[C@@H](O)[C@]3(CO)[C@H]4[C@H](O)C[C@]5(C)[C@@H](C6=CC(=O)OC6)CC[C@]5(O)[C@@H]4CC[C@]3(O)C2)[C@H](O)[C@H](O)[C@H]1O` [OUABAIN], the “collision cross section (N2)” value ([M+H]+) was determined as 234 Å².

Regarding `O=C(O)CCc1nc(-c2ccccc2)c(-c2ccccc2)o1` [OXAPROZIN], for the setting “[M+H]+”, the “collision cross section (N2)” value is listed as 169.7 Å².

For the compound `NC(=O)N1c2ccccc2CC(=O)c2ccccc21` [OXCARBAZEPINE], the “collision cross section (N2)” value ([M+H]+) is 152.7 Å².

As for `CNCC(O)c1ccc(O)cc1` (stereo not given) [OXEDRINE], the “collision cross section (N2)” value ([M+H-H2O]+) is on record as 132 Å².

On to `CCN(CC)CCOCCOC(=O)C(CC)(CC)c1ccccc1` [OXELAIDIN CITRATE], for which the “collision cross section (N2)” value ([M+H]+) came to 178.3 Å².

As to `COC(=O)Nc1nc2ccc(S(=O)c3ccccc3)cc2[nH]1` (stereo not given) [OXFENDAZOLE], under “[M+H]+”, the “collision cross section (N2)” value is recorded as 174.1 Å².

In the case of `CCCOc1ccc2nc(NC(=O)OC)[nH]c2c1` [OXIBENDAZOLE], under “[M+H]+”, the “collision cross section (N2)” value turned out to be 157.5 Å².

For `CCn1cc(C(=O)O)c(=O)c2cc3c(cc21)OCO3` [OXOLINIC ACID], the “collision cross section (N2)” value ([M+H]+) is 149.1 Å².

Take `CC(=O)OC1C(=O)C2(C)C(O)CC3OCC3(OC(C)=O)C2C(OC(=O)c2ccccc2)C2(O)CC(OC(=O)C(O)C(NC(=O)c3ccccc3)c3ccccc3)C(C)=C1C2(C)C` (stereo not given) [PACLITAXEL]: the “collision cross section (N2)” value ([M+H]+) was found to be 278.9 Å².

On to `COc1ccc(-c2cc(=O)c3c(O)c(OC)c(O[C@@H]4O[C@H](CO[C@@H]5O[C@@H](C)[C@H](O)[C@@H](O)[C@H]5O)[C@@H](O)[C@H](O)[C@H]4O)cc3o2)cc1` [PECTOLINARIN], for which the “collision cross section (N2)” value ([M+H]+) turned out to be 236.5 Å².

Regarding `N#Cc1ccc2c(c1)N(CCCN1CCC(O)CC1)c1ccccc1S2` [PERICIAZINE], the “collision cross section (N2)” value ([M+H]+) is reported as 186.6 Å².

Consider `CO[C@H]1[C@H](O)[C@H](O[C@H]2CC[C@@]3(C=O)[C@H](CC[C@@H]4[C@@H]3CC[C@]3(C)[C@@H](C5=CC(=O)OC5)CC[C@]43O)C2)O[C@@H](C)[C@@H]1O` [PERUVOSIDE], for which the “collision cross section (N2)” value ([M+H]+) was determined as 239.4 Å².

In the case of `NC(=O)NC(=O)Cc1ccccc1` [PHENACEMIDE], where the note is “[M+H]+”, the “collision cross section (N2)” value was determined as 128.3 Å².

In the case of `O=C1c2ccccc2C(=O)C1c1ccccc1` [PHENINDIONE], for the setting “[M+H]+”, the “collision cross section (N2)” value came to 145.9 Å².

As for `OCCc1ccccc1` [PHENYLETHYL ALCOHOL], the “collision cross section (N2)” value ([M+H]+) worked out at 121.2 Å².

As for `O=C(CCc1ccc(O)cc1)c1c(O)cc(O)cc1O` [PHLORETIN], the “collision cross section (N2)” value ([M+H]+) amounted to 160.7 Å².

As to `O=C(CCc1ccc(O)cc1)c1c(O)cc(O)cc1O[C@@H]1O[C@H](CO)[C@@H](O)[C@H](O)[C@H]1O` [PHLORIDZIN], the “collision cross section (N2)” value ([M+Na]+) is 194.4 Å².

Regarding `O=C(O)c1ccccc1C(=O)Nc1ccc(S(=O)(=O)Nc2nccs2)cc1` [PHTHALYLSULFATHIAZOLE], the “collision cross section (N2)” value ([M+H]+) was 194.9 Å².

Take `CC1=C(C/C=C(\C)CCC[C@H](C)CCC[C@H](C)CCCC(C)C)C(=O)c2ccccc2C1=O` [PHYTONADIONE]: the “collision cross section (N2)” value ([M+H]+) is on record as 220 Å².

On to `CC(C)NCC(O)COc1cccc2[nH]ccc12` (stereo not given) [PINDOLOL], for which the “collision cross section (N2)” value ([M+H]+) is 157.6 Å².

On to `NC(=O)C1(N2CCCCC2)CCN(CCCC(=O)c2ccc(F)cc2)CC1` [PIPAMPERONE], for which the “collision cross section (N2)” value ([M+H]+) is listed as 192.6 Å².

For `O=C(O)c1ccc2c(c1)OCO2` [PIPERONYLIC ACID], under “[M+H]+”, the “collision cross section (N2)” value was found to be 124.5 Å².

With `COc1cc(/C=C/C(=O)N2CCC=CC2=O)cc(OC)c1OC` [PIPLARTINE], for the setting “[M+H]+”, the “collision cross section (N2)” value is given as 176.1 Å².

With `C[C@]12C=CC(=O)C=C1CC[C@@H]1[C@@H]2[C@@H](O)C[C@@]2(C)[C@H]1CC[C@]2(O)C(=O)CO` [PREDNISOLONE], the “collision cross section (N2)” value ([M+H]+) is reported as 183.7 Å².

`CC(C)=CCOc1cc2oc(=O)ccc2cc1O` [PRENYLETIN]: the “collision cross section (N2)” value ([M+H]+) is on record as 153.5 Å².

Take `O=c1cc(-c2ccccc2)oc2cccc(O)c12` [PRIMULETIN]: for the setting “[M+H]+”, the “collision cross section (N2)” value is reported as 147.3 Å².

For the compound `CC(=O)[C@H]1CC[C@H]2[C@@H]3CCC4=CC(=O)CC[C@]4(C)[C@H]3CC[C@]12C` [PROGESTERONE], the “collision cross section (N2)” value ([M+H]+) turned out to be 177.8 Å².

Regarding `CCCN(CCC)C(=O)C(CCC(=O)O)NC(=O)c1ccccc1` (stereo not given) [PROGLUMIDE], the “collision cross section (N2)” value ([M+H]+) amounted to 181.1 Å².

Regarding `CC(C)NCC(O)COc1cccc2ccccc12` (stereo not given) [PROPRANOLOL], the “collision cross section (N2)” value ([M+H]+) was 161.5 Å².

As for `C=Cc1c(C)c2cc3[nH]c(cc4nc(cc5nc(cc1[nH]2)C(C)=C5CCC(=O)O)C(CCC(=O)O)=C4C)c(C)c3C=C` [PROTOPORPHYRIN IX], the “collision cross section (N2)” value ([M+H]+) is on record as 238.8 Å².

For `CC1=CCc2c(cc3oc(C)cc(=O)c3c2O)OC1` [PTAEROXYLIN], the “collision cross section (N2)” value ([M+H]+) was determined as 153.5 Å².

Consider `CC[C@@]1(O)C[C@H](O[C@H]2C[C@H](N(C)C)[C@H](O)[C@H](C)O2)c2c(cc3c(c2O)C(=O)c2c(O)ccc(O)c2C3=O)[C@H]1C(=O)OC` [PYRROMYCIN], for which, for the setting “[M+H]+”, the “collision cross section (N2)” value is 233.9 Å².

As for `C[C@@H]1O[C@@H](Oc2c(-c3ccc(O)c(O)c3)oc3cc(O)cc(O)c3c2=O)[C@H](O)[C@H](O)[C@H]1O` [QUERCITRIN], the “collision cross section (N2)” value ([M+Na]+) was 205.9 Å².

Consider `C=C[C@H]1CN2CC[C@H]1C[C@@H]2[C@@H](OC(=O)OCC)c1ccnc2ccc(OC)cc12` [QUININE ETHYL CARBONATE], for which the “collision cross section (N2)” value ([M+H]+) was 196.7 Å².

For `CN/C(=C\[N+](=O)[O-])NCCSCc1ccc(CN(C)C)o1` [RANITIDINE], the “collision cross section (N2)” value ([M+H]+) is recorded as 167 Å².

As to `O=C(NC(Cc1cc(=O)[nH]c2ccccc12)C(=O)O)c1ccc(Cl)cc1` (stereo not given) [REBAMIPIDE], the “collision cross section (N2)” value ([M+H]+) came to 185 Å².

Regarding `CNc1ccccc1C(=O)N1CCc2c([nH]c3ccccc23)C1=O` [RHETSININE], the “collision cross section (N2)” value ([M+H-H2O]+) is 166.5 Å².

On to `Cc1nc2sccn2c(=O)c1CCN1CCC(=C(c2ccc(F)cc2)c2ccc(F)cc2)CC1` [RITANSERIN], for which the “collision cross section (N2)” value ([M+H]+) is given as 220.7 Å².

As to `Cn1c([N+](=O)[O-])cnc1COC(N)=O` [RONIDAZOLE], the “collision cross section (N2)” value ([M+H]+) stood at 136.9 Å².

Consider `CCCN(CCC)CCc1cccc2c1CC(=O)N2` [ROPINIROLE], for which, where the note is “[M+H]+”, the “collision cross section (N2)” value is 162.5 Å².
